Results reported in PubChem BioAssay (NCI).
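Tested at 5 concentrations; 48 h exposure; 96-well plates; endpoints linearly interpolated, else capped at highest concentration. TGI marks complete inhibition of growth.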 Where a SMILES comes first, the peptide text is derived from it. The star is where a group is joined. Fmoc = O=C(OCC1c2ccccc2-c2ccccc21)*; Boc = CC(C)(C)OC(=O)*

Experiments:
Assay in all cases: NCI anticancer screen, dose series, 48 h
MDA-MB-231 breast = tested on: MDA-MB-231 breast
HOP-62 NSCLC = tested on: HOP-62 NSCLC
A549 NSCLC = tested on: A549 NSCLC
OVCAR-5 ovarian = tested on: OVCAR-5 ovarian
T-47D breast = tested on: T-47D breast
CAKI-1 renal = tested on: CAKI-1 renal
KM12 colon = tested on: KM12 colon
HL-60(TB) leukemia = tested on: HL-60(TB) leukemia
786-0 renal = tested on: 786-0 renal
NCI/ADR-RES ovarian = tested on: NCI/ADR-RES ovarian

Row | SMILES | TGI (MDA-MB-231 breast) | TGI (HOP-62 NSCLC) | TGI (A549 NSCLC) | TGI (OVCAR-5 ovarian) | TGI (T-47D breast) | TGI (CAKI-1 renal) | TGI (KM12 colon) | TGI (HL-60(TB) leukemia) | TGI (786-0 renal) | TGI (NCI/ADR-RES ovarian)
1 | CC(C)[Si](OC1=CCC[C@H]2NC(=O)[C@@H](Cc3ccccc3)[C@@]12C)(C(C)C)C(C)C | 26.5 µM | 24.2 µM | 12.6 µM | 21.3 µM | 12.2 µM | 14.6 µM | 14.4 µM | 7.82 µM | 14.9 µM | 21.7 µM
2 | Cn1c2ccccc2c2c(=O)[nH]c(=O)[nH]c21 | > 100 µM | > 100 µM | > 100 µM | > 100 µM | > 100 µM | > 100 µM | > 100 µM | > 100 µM | > 100 µM | > 100 µM
3 | Cc1cc(C)nc(SC(C)C(=O)N/N=C/c2ccc(OCc3ccccc3)cc2)n1 (stereo not given) | 65 µM | > 100 µM | > 100 µM | > 100 µM | 63.8 µM | > 100 µM | > 100 µM | 38.3 µM | > 100 µM | > 100 µM
4 | COc1ccc(C(SCCO)(c2ccccc2)c2ccccc2)cc1 | 31 µM | 37.9 µM | 24.6 µM | 36.4 µM | 27 µM | 32.2 µM | 37 µM | 67 µM | 27 µM | 34.2 µM
5 | N=c1c2c(-c3ccccc3)c[nH]c2ncn1N | > 100 µM | > 100 µM | > 100 µM | > 100 µM | > 100 µM | > 100 µM | > 100 µM | > 100 µM | > 100 µM | > 100 µM
6 | CC1(CCCO)CCCCCCCCCC(C)(CCCO)C1=O (stereo not given) | > 100 µM | > 100 µM | > 100 µM | > 100 µM | > 100 µM | > 100 µM | > 100 µM | > 100 µM | > 100 µM | > 100 µM
7 | CC(C)(C)c1cc(C2=NN(c3ccccc3)C(c3ccccc3)C2)cc(C(C)(C)C)c1O (stereo not given) | > 100 µM | > 100 µM | > 100 µM | > 100 µM | > 100 µM | > 100 µM | > 100 µM | > 100 µM | > 100 µM | > 100 µM
8 | O=C(/C=C/c1cc(O)c(O)cc1O)OCCc1ccccc1 | 38.3 µM | 75.4 µM | > 100 µM | > 59.2 µM | 20.1 µM | 78.3 µM | > 100 µM | 3.73 µM | 18.6 µM | 71.2 µM
9 | CCCCCCCCCCCCCC[S+](C)C | 4.64 µM | 3.87 µM | 4.14 µM | > 10 µM | > 10 µM | > 10 µM | 2.95 µM | 2.47 µM | 2.61 µM | > 10 µM
10 | Cn1c(-c2ccccc2)cc2c3ccsc3c3ccsc3c21 | > 100 µM | > 100 µM | > 100 µM | > 100 µM | > 100 µM | > 100 µM | > 100 µM | > 100 µM | > 100 µM | > 100 µM
11 | C#CC1(O)C(COP(=O)(O)OCC2OC(n3ccc(NCCCCCCCCCCCCCCCCCC)nc3=O)C(O)C2O)OC(n2ccc(N)nc2=O)C1O (stereo not given) | 34.4 µM | 46.7 µM | > 55.9 µM | 60.5 µM | > 38.4 µM | 6.77 µM | 26.6 µM | 19.5 µM | > 100 µM | 37.3 µM
12 | CC(C)(C)OC(=O)NCCCCC(NC(=O)OCC1c2ccccc2-c2ccccc21)C(=O)N1CCCC1C(=O)NCC(N)=O (stereo not drawn) (Fmoc-Lys(Boc)-Pro-Gly-NH2; configuration not given here) | > 100 µM | > 100 µM | > 100 µM | > 100 µM | > 100 µM | 30.1 µM | 38.3 µM | > 100 µM | 34.3 µM | > 100 µM
13 | Cc1ccc(O)c(-c2cc(-c3cccc(Cl)c3)c(C#N)c(N)n2)c1 | 54.4 µM | 48.2 µM | 43.4 µM | 70.4 µM | > 100 µM | > 100 µM | 64.2 µM | 68.6 µM | 46 µM | 90.4 µM
14 | Nc1nc(N)c2ncn(Cc3ccccc3CCl)c2n1 | > 100 µM | > 100 µM | > 100 µM | > 100 µM | > 100 µM | > 100 µM | > 100 µM | > 100 µM | > 100 µM | > 100 µM
15 | COC(=O)C1CCC(=O)N1C(c1ccc(OC)cc1)c1ccc(OC)cc1 (stereo not given) | > 100 µM | > 100 µM | > 100 µM | > 100 µM | > 100 µM | > 100 µM | > 100 µM | > 100 µM | > 100 µM | > 100 µM
16 | O=C(/C=C/c1ccc(/C=C/C(=O)c2ccc(O)cc2)cc1)c1ccc(O)cc1 | > 100 µM | > 100 µM | > 100 µM | > 100 µM | > 100 µM | > 100 µM | > 100 µM | > 100 µM | > 100 µM | > 100 µM
17 | NCCCNC1(c2cc3ccccc3s2)CCCCC1 | 14.2 µM | 27.8 µM | 21.5 µM | 26.3 µM | 6.96 µM | 23 µM | 14.7 µM | 14.8 µM | 5.27 µM | 30.4 µM
